Experimental data published in patent US11485751B2, “Apramycin derivatives” (WAYNE STATE UNIVERSITY, priority 2017, dated 2022).
Values after ≈ are worked out from the molar mass of the structure shown. Like-named read-outs stand apart in the source and are kept apart here.

Legend:
[1] = tested on: AG031 P. aer. APH(3′)-II; test: Antibacterial activity, clinical isolate AG031; assay type: cell-based; parameters: unit not given here
From the text: (§1) Minimal inhibitory concentrations (MIC) have been determined by broth microdilution assays (CLSI. Methods for Dilution Antimicrobial Susceptibility Tests for Bacteria That Grow Aerobically; Approved Standard—Tenth Edition. CLSI document M07-A10. Wayne, Pa.: Clinical and Laboratory Standards Institute; 2015.).
(§2) Table 4 and 5 show the antibacterial activity of the compounds of the invention against bacterial reference strains (table 4) and against representative clinical isolates (table 5).

[2] = tested on: isolates carrying apmA; test: MIC broth microdilution, apmA; assay type: cell-based; settings: apmA resistance gene
From the text: as §1, with “2015.). […]” for “2015.).”
(§3) Minimal inhibitory concentrations (μg/ml) against clinical isolates from Institute of Medical Microbiology, Univ. Zurich, and the IC50 values for bacterial, human mitochondrial and human cytosolic ribosomes are indicated.
(§4) The Minimal inhibitory concentrations (MICs, μg/ml) against clinical isolates from Institute of Medical Microbiology, Univ Zurich, and the IC50 values for bacterial, human mitochondrial and human cytosolic ribosomes are indicated.

[3] = tested on: K. pneum. AG269 AAC(3)-II AAC(6′)-I rmtB; test: Activity against G1405-methylated 16S-rRNA, clinical isolate AG269; assay type: cell-based
From the text: as §1

[4] = tested on: AG215, Klebsiella pneumonia; test: MIC reference strain AG215; assay type: cell-based; settings: for MIC: Klebsiella pneumoniae, read-out: MIC AG215 K. pneumonia
From the text: as §1, §2
(§5) Legend to Tables: GEN, gentamicin; AMK, amikacin; PLZ, plazomicin; APR, apramycin; AG212, Escherichia coli ATCC25922; AG215, Klebsiella pneumonia; AG220, Pseudomonas aeruginosa ATCC27853; AG225, Acinetobacter baumannii pittii; AG290, Enterobacter cloacae; […], Mycobacterium smegmatis. MICs for AG192 have been determined in the presence of 0.5 μg/mL of ampicillin in the medium to mimic the synergistic effect of aminoglycoside and β-lactam antibiotics combination therapy in the treatment of Enterococcus infections in humans.

[5] = tested on: AG212, Escherichia coli ATCC25922; test: MIC reference strain AG212; assay type: cell-based; settings: for MIC: Escherichia coli
From the text: as §1, §2, §5

[6] = tested on: AG220, Pseudomonas aeruginosa ATCC27853; test: MIC reference strain AG220; assay type: cell-based; settings: for MIC: Pseudomonas aeruginosa
From the text: as §1, §2, §5

[7] = tested on: Enterob. AG302 AAC(3)-II AAC(6′)-I rmtC; test: Activity against G1405-methylated 16S-rRNA, clinical isolate AG302; assay type: cell-based
From the text: as §1

[8] = tested on: AG173 E. coli AAC(3)-IV; test: Antibacterial activity, clinical isolate AG173; assay type: cell-based
From the text: as §1, §2

[9] = tested on: bacterial ribosomes; test: in-vitro translation assay, bacterial ribosomes; assay type: biochemical
From the text: (§6) IC50 values for bacterial, human chimeric, and rabbit reticulocyte ribosomes have been determined by in-vitro translation assays as described previously (Proc. Nat. Ac. Sci USA 2012, 109(27):10984-10989).
(§7) Minimal inhibitory concentrations (MICs, […]) against clinical isolates from Institute of Medical Microbiology, Univ. Zurich, and the IC50 values for bacterial, human mitochondrial and human cytosolic ribosomes are indicated.

[10] = tested on: AG038 MRSA; test: Antibacterial activity, clinical isolate AG038; assay type: cell-based; parameters: unit not given here
From the text: as §1, §2

[11] = tested on: SZ380, Mycobacterium smegmatis; test: MIC reference strain SZ380; assay type: cell-based; settings: Mycolicibacterium smegmatis, read-out: MIC SZ380 M. smegmatis
From the text: as §1, §2, §5

[12] = tested on: A baum. AG227 APH(3′)-I armA; test: Activity against G1405-methylated 16S-rRNA, clinical isolate AG227; assay type: cell-based
From the text: as §1

[13] = tested on: AG225, Acinetobacter baumannii pittii; test: MIC reference strain AG225; assay type: cell-based; settings: for MIC: Acinetobacter baumannii, read-out: MIC AG225 A. baumannii
From the text: as §1, §2, §5

[14] = tested on: Engineered E. coli pH424 armA; test: Activity against G1405-methylated 16S-rRNA, E. coli pH424 armA; assay type: cell-based
From the text: as §1

[15] = tested on: WT clinical isolates; test: MIC broth microdilution, WT; assay type: cell-based; settings: read-out: MIC WT, clinical isolates, IMM Univ. Zurich; wild type
From the text: as §1, §7, §3, §4

[16] = tested on: Engineered E. coli pH430 WT; test: Activity, engineered E. coli pH430 WT; assay type: cell-based; parameters: unit not given here; settings: wild type
From the text: as §1

[17] = tested on: human mitochondrial ribosomes; test: in-vitro translation assay, human mitochondrial (human chimeric) ribosomes; assay type: biochemical
From the text: as §6, §7

[18] = tested on: E. coli AG153 AAC(3)-II APH(3′)-II rmtB; test: Activity against G1405-methylated 16S-rRNA, clinical isolate AG153; assay type: cell-based; parameters: unit not given here
From the text: as §1

[19] = tested on: clinical isolates carrying AAC(3)-IV; test: MIC broth microdilution, AAC(3)-IV; assay type: cell-based; settings: read-out: MIC AAC(3)-IV
From the text: as §1, §7, §3, §4

[20] = tested on: human cytosolic ribosomes; test: in-vitro translation assay, human cytosolic ribosomes; assay type: biochemical
From the text: as §6, §7

[21] = tested on: AG001 E. coli WT; test: Antibacterial activity, clinical isolate AG001; assay type: cell-based; parameters: unit not given here
From the text: as §1, §2

[22] = tested on: ATCC19977 M. abcessus; test: MIC reference strain ATCC19977; assay type: cell-based; settings: for MIC: read-out: MIC ATCC19977 M. abcessus
From the text: as §1, §2

[23] = tested on: AG290, Enterobacter cloacae; test: MIC reference strain AG290; assay type: cell-based; settings: for MIC: Enterobacter cloacae, read-out: MIC AG290 E. cloacae
From the text: as §1, §2, §5

[24] = tested on: Engineered E. coli pH427 rmtF; test: Activity against G1405-methylated 16S-rRNA, E. coli pH427 rmtF; assay type: cell-based
From the text: as §1

[25] = tested on: Engineered E. coli pH426 rmtC; test: Activity against G1405-methylated 16S-rRNA, E. coli pH426 rmtC; assay type: cell-based
From the text: as §1

[26] = tested on: AG033 P. aer. APH(3′)-II AAC(6′)-I; test: Antibacterial activity, clinical isolate AG033; assay type: cell-based; parameters: unit not given here
From the text: as §1, §2

[27] = tested on: AG039 MRSA AAC(6′)-I ANT(4′)-I; test: Antibacterial activity, clinical isolate AG039; assay type: cell-based
From the text: as §1, §2

[28] = tested on: AG032 P. aer. APH(3′)-II; test: Antibacterial activity, clinical isolate AG032; assay type: cell-based; parameters: unit not given here
From the text: as §1, §2

[29] = tested on: AG042 MRSA AAC(6′)-I ANT(4′)-I APH(2′); test: Antibacterial activity, clinical isolate AG042; assay type: cell-based; parameters: unit not given here
From the text: as §1, §2

[30] = tested on: Engineered E. coli pH425 rmtB; test: Activity against G1405-methylated 16S-rRNA, E. coli pH425 rmtB; assay type: cell-based
From the text: as §1

[31] = tested on: AG055 E. coli WT; test: Antibacterial activity, clinical isolate AG055; assay type: cell-based; parameters: unit not given here
From the text: as §1, §2

[32] = tested on: AG003 E. coli AAC(3)-II; test: Antibacterial activity, clinical isolate AG003; assay type: cell-based; parameters: unit not given here
From the text: as §1, §2

[33] = ATCC25922, read-out: MIC AG212 E. coli
[34] = ATCC27853, read-out: MIC AG220 P. aeruginosa

| Compound | Antibacterial activity AG031 P. aer. APH(3′)-II [1] | MIC [2] [µg/mL] | Activity K. pneum. AG269 AAC(3)-II AAC(6′)-I rmtB [3] | MIC [4] [µg/mL] | MIC [5, 33] [µg/mL] | MIC [6, 34] [µg/mL] | Activity Enterob. AG302 AAC(3)-II AAC(6′)-I rmtC [7] | Antibacterial activity AG173 E. coli AAC(3)-IV [8] | IC50 [9] [µM] | Antibacterial activity AG038 MRSA [10] | MIC [11] [µg/mL] | Activity A baum. AG227 APH(3′)-I armA [12] | MIC [13] [µg/mL] | Activity E. coli pH424 armA [14] | Activity E. coli pH430 WT [16] | IC50 [17] [µM] | Activity E. coli AG153 AAC(3)-II APH(3′)-II rmtB [18] | MIC [19] [µg/mL] | Antibacterial activity AG001 E. coli WT [21] | MIC [22] [µg/mL] | also measured |
| --- | --- | --- | --- | --- | --- | --- | --- | --- | --- | --- | --- | --- | --- | --- | --- | --- | --- | --- | --- | --- | --- |
| CN[C@H]1C(O)C2O[C@H](O[C@@H]3C(N)C[C@@H](N)[C@@H](O)[C@H]3OCCCN)C(N)C[C@@H]2O[C@@H]1O[C@H]1OC(CO)[C@@H](N)[C@H](O)C1O (stereo partly shown) [DC213] | 16-32 | 64 to 128 (≈ 107 to 215 µM) | 4-8 | 2 | 4 to 8 | 8 | 4-8 | 128 | 0.21 | 4 | 0.25 | 4-8 | 8 | 4 | 4 | 327 | 32 | 64 (≈ 107 µM) | 16 | 1 (≈ 1.68 µM) | MIC [15]: 4 µg/mL (≈ 6.7 µM); IC50 [20]: 210 µM; MIC [23]: 4 to 8 µg/mL |
| CN[C@H]1C(O)C2O[C@H](O[C@@H]3C(N)C[C@@H](NC(=O)C(O)CCN)[C@@H](O)[C@H]3O)C(N)C[C@@H]2O[C@@H]1O[C@H]1OC(CO)[C@@H](N)[C@H](O)C1O (stereo partly shown) [DC191] |  | 8 (≈ 12.5 µM) | 2 | 1 to 2 | 2 | 4 | 2-4 | 4-8 | 0.2 | 4 | 0.5 | 4 | 8 | 2 | 2-4 | 98 | 4 | 4 to 8 (≈ 6.24 to 12.5 µM) | 8 | 2 (≈ 3.12 µM) | MIC [15]: 2 to 4 µg/mL (≈ 3.12 to 6.24 µM); IC50 [20]: 87 µM; MIC [23]: 2 µg/mL |
| CNC1C(O)C2O[C@H](O[C@@H]3C(N)C[C@@H](N)[C@@H](O)[C@H]3OCCCO)C(N)C[C@@H]2O[C@@H]1O[C@H]1OC(CO)[C@@H](N)[C@H](O)C1O (stereo partly shown) [DC207] | 128 | > 128 | 8 | 8 | 16 | 64 | 8-16 | >128 | 0.6 | 32 | 1 | 16-32 | 32 | 4 | 8 | > 1000 | 8 | > 128 | 16 | 8 (≈ 13.4 µM) | IC50 [20]: > 1000 µM; MIC [23]: 16 µg/mL |
| NCC[C@H](O)C(=O)N[C@@H]1C[C@H](N)[C@@H](O[C@H]2O[C@H](CN)[C@@H](O)[C@H](O)[C@H]2O)[C@H](O)[C@H]1O[C@H]1O[C@H](CO)[C@@H](O)[C@H](N)[C@H]1O [AMK, amikacin, reference compound] | 4 |  | >256 |  |  |  | >256 |  |  | 4 |  | >256 |  | >128 | 1 |  | >256 |  |  | 2 (≈ 3.42 µM) | Activity E. coli pH427 rmtF [24]: >128; Activity E. coli pH426 rmtC [25]: >128; MIC ([4]; reference strain): 1 µg/mL; MIC ([5]; reference strain ATCC25922, read-out: MIC AG212 E. coli): 2 µg/mL; MIC ([6]; ATCC27853, reference strain ATCC27853, read-out: MIC AG220 P. aeruginosa): 2 µg/mL; Antibacterial activity AG033 P. aer. APH(3′)-II AAC(6′)-I [26]: 64; Antibacterial activity AG039 MRSA AAC(6′)-I ANT(4′)-I [27]: 2-4; MIC ([13]; reference strain): 2 µg/mL; Antibacterial activity AG032 P. aer. APH(3′)-II [28]: 4; Antibacterial activity AG042 MRSA AAC(6′)-I ANT(4′)-I APH(2′) [29]: 16-32; MIC ([23]; reference strain): 1 µg/mL; Activity E. coli pH425 rmtB [30]: >128 |
| gentamicin [reference compound] | 0.5 |  | >256 |  |  |  | >256 |  |  | 0.25-0.5 |  | >256 |  | >128 | 0.25 |  | >256 |  | 1 |  | Activity E. coli pH427 rmtF [24]: >128; Activity E. coli pH426 rmtC [25]: >128; MIC AG215 K. pneumonia ([4]; reference strain): 0.25 µg/mL; MIC AG212 E. coli ([5]; reference strain ATCC25922): 0.5 µg/mL; MIC AG220 P. aeruginosa ([6]; reference strain ATCC27853): 0.5 to 1 µg/mL; Antibacterial activity AG033 P. aer. APH(3′)-II AAC(6′)-I [26]: 16; Antibacterial activity AG039 MRSA AAC(6′)-I ANT(4′)-I [27]: 0.25-0.5; MIC AG225 A. baumannii ([13]; reference strain): 0.5 to 1 µg/mL; Antibacterial activity AG032 P. aer. APH(3′)-II [28]: 0.5; Antibacterial activity AG055 E. coli WT [31]: 0.5; Antibacterial activity AG042 MRSA AAC(6′)-I ANT(4′)-I APH(2′) [29]: 64; MIC ATCC19977 M. abcessus ([22]; reference strain): 2 to 4 µg/mL; MIC AG290 E. cloacae ([23]; reference strain): 0.25 µg/mL; Activity E. coli pH425 rmtB [30]: >128; Antibacterial activity AG003 E. coli AAC(3)-II [32]: 32-64 |
